“And” between values parts separate entries of the source, which are not always exact repeats. Equal entries are not always repeated. Where no end group is shown, it is not given here.
B1: GnRH-II: neuropeptide (peptide, UniProt O43555 24-120, looked up)
Progonadoliberin-2: QHWSHGWYPGGKRALSSAQDPQNALRPPGRALDTAAGSPVQTAHGLPSDALAPLDDSMPWEGRTTAQWSLHRKRHLARTLLTAAREPRPAPPSSNKV
modifications: Progonadoliberin-2
notes: neuropeptide

What was measured:
[1] = system: PD-1 expressing CD3+ normal human T cells; test: PD-1 surface expression on CD3+ T cells of healthy donors after treatment (1, 18, 24 Hr); format: cell-based; details: for % reduction in % of T cells expressing PD-1: vs untreated; for effect on PD-1 expressing T cells: incubated for 24 hours
Experimental: (§1) Peripheral blood lymphocytes (PBLs) were separated from normal human leukocytes of healthy donors by Ficol separation and CD3 positive T cells were separated by anti-CD3 antibody-coupled magnetic beads. The CD3+ T cells were cultured in RPMI 1640 medium supplemented with 10% heat inactivated fetal calf serum (FCS), 1% L-Glutamine, 1% sodium pyruvate, 1% non-essential amino acids, and 1% antibiotics. The cells were usually maintained for, for on average 24 hours after their separation before various molecules were added and their effects on the T cells were measured. […] It was therefore tested if neurotransmitters, neuropeptides, and/or modulators of voltage-gated ion channels can reduce PD-1 on the cell surface of T cells. Such a reduction would allow the T cells to escape the tumor-induced T cell suppression, and the activated T cells could then attach the cancer cells. As such, the expression of PD-1 on the surface of these treated and untreated T cells was monitored. […] Shorter in vitro incubation times are frequently preferable when cells are going to subsequently be returned to a subject, as they end to decrease the risk of an adverse reaction.

[2] = system: PD-1 expressing smaller non-proliferating CD3+ normal human T cells; test: PD-1 expression on smaller non-proliferating T cells (FSC/SSC gating), 1 Hr treatment; format: cell-based; details: for % reduction in % of smaller T cells expressing PD-1: vs untreated
Experimental: as §1
(§2) CD3 positive T cells of patients are a heterogenous mix of different types of T cells. […] Using this FCS and SSC analysis, T cells can be distinguished and separated by size into large proliferating T cells and smaller non-proliferating T cells.

[3] = system: PD-1 expressing large proliferating CD3+ normal human T cells; test: PD-1 expression on large proliferating T cells (FSC/SSC gating), 1 Hr treatment; format: cell-based; details: for % reduction in % of large T cells expressing PD-1: vs untreated
Experimental: as §1, §2

[4] = system: CD3+ T cells of liver cancer patients; test: Proliferation / big proliferating T cells / CD25 of CD3+ T cells of liver cancer patients; format: cell-based, human; set-up: % big/activated/proliferating T cells: concentration or dose not given beside the values; details: for % big/activated/proliferating T cells / Fold increase (big/activated/proliferating T cells): T cells of liver cancer patient one; for % big/activated/proliferating T cells: 60 hours culture; for Fold increase (big/activated/proliferating T cells): vs untreated; for number of T cells present in culture (FIG. 1): 60 hours after administration
Experimental: Blood was drawn from two patients suffering from liver cancer, patient one and patient two who both suffer from hepatocellular carcinoma. 15 mLs of blood yielded roughly 2.5×10^7 peripheral blood leucocytes, from which approximately […] positive T cells were isolated. The cells were cultured as described above, and the effects of various molecules and their combinations on those T cells were examined.
Cell proliferation was monitored in culture for 60 hours after administration of the molecule/s (FIG. 1).

Row | Molecule | % of T cells expressing PD-1 ([1]; 1 Hr treatment, 10^−8M) | % reduction in % of T cells expressing PD-1 ([1]; 1 Hr treatment, 10^−8M) | % of T cells expressing PD-1 ([1]; 24 Hr treatment, 10^−7M) | % reduction in % of T cells expressing PD-1 ([1]; 24 Hr treatment, 10^−7M) | % of T cells expressing PD-1 ([1]; 24 Hr treatment, 10^−8M) | % reduction in % of T cells expressing PD-1 ([1]; 24 Hr treatment, 10^−8M) | % of smaller T cells expressing PD-1 ([2]; 10−8M) | % reduction in % of smaller T cells expressing PD-1 ([2]; 10−8M) | % of large T cells expressing PD-1 ([3]; 10^−8M) | % reduction in % of large T cells expressing PD-1 ([3]; 10^−8M) | % of T cells expressing PD-1 ([1]; 18 Hr treatment, 10^−7M) | % reduction in % of T cells expressing PD-1 ([1]; 18 Hr treatment, 10^−7M) | further results
1 | CCCN(CCC)C1CCc2ccc(O)cc2C1 (stereo not shown) [7-OH-DPAT] | 21.65% | 42% | 5.12% | 75.85% | 13.6% | 35.85% | – | – | – | – | – | – | –
2 | NC[C@@H]1O[C@H](C23CC4CC(CC(C4)C2)C3)Cc2c1ccc(O)c2O [A77636] | 27.25% | 25% | 12.7% | 37.84% | 14.7% | 28.05% | 40.8% | 7.1% | 20.5% | 4.7% | 27.10% | 21.90% | –
3 | Cc1cccc(NC(=O)CN2CCC(c3ccccn3)CC2)c1 [A412997] | 17.4% | 52% | – | – | – | – | – | – | – | – | – | – | –
4 | Cc1onc(O)c1CC(N)C(=O)O (stereo not shown) [AMPA, alph-amino-3-hydroxy-5-methyl-4-isoxazalepropinoic acid] | 26.4% | 28% | – | – | – | – | – | – | – | – | 28.55% | 17.72% | –
5 | N#Cc1cc2[nH]c(=O)c(=O)[nH]c2cc1[N+](=O)[O-] [CNQX] | – | – | – | – | – | – | – | – | – | – | – | – | % of T cells expressing PD-1 ([1]; 24 Hr treatment, 0.5*10^-6M): 13.7%; % reduction in % of T cells expressing PD-1 ([1]; 24 Hr treatment, 0.5*10^-6M): 32.93%; % of T cells expressing PD-1 ([1]; 24 Hr treatment, 0.5*10^−5M): 12.9%; % reduction in % of T cells expressing PD-1 ([1]; 24 Hr treatment, 0.5*10^−5M): 36.84%
6 | Oc1ccc(C2CNCCc3c2cc(O)c(O)c3Cl)cc1 (stereo not shown) [Fenoldopam (powder), Fenoldopam] | – | – | 21.3% | −4.26% | 14.7% | 28.05% | – | – | – | – | 25.75% | 25.79% | effect on PD-1 expressing T cells [1]: did not have a positive effect
7 | Oc1ccc(C2CNCCc3c2cc(O)c(O)c3Cl)cc1 (stereo not shown) [Fenoldopam - Corlopam, Fenoldopam] | – | – | – | – | – | – | – | – | – | – | 27.87% | 19.74% | –
8 | OC1(c2ccc(Cl)cc2)CCN(Cc2c[nH]c3ccccc23)CC1 [L-741,626] | – | – | – | – | – | – | – | – | – | – | – | – | % of smaller T cells expressing PD-1 ([2]; concentration not given): 38.6%; % reduction in % of smaller T cells expressing PD-1 ([2]; concentration not given): 12.1%; % of large T cells expressing PD-1 ([3]; concentration not given): 19.0%; % reduction in % of large T cells expressing PD-1 ([3]; concentration not given): 11.6%
9 | Cc1c(C2CCN(CCc3ccccc3)CC2)noc1-c1ccc(Cl)cc1 [L-741,742] | – | – | – | – | – | – | – | – | – | – | – | – | % of smaller T cells expressing PD-1 ([2]; concentration not given): 37.8%; % reduction in % of smaller T cells expressing PD-1 ([2]; concentration not given): 13.9%; % of large T cells expressing PD-1 ([3]; concentration not given): 19.3%; % reduction in % of large T cells expressing PD-1 ([3]; concentration not given): 10.2%
10 | O=C(NCCCCN1CCN(c2cccc(Cl)c2Cl)CC1)c1ccc2c(c1)Cc1ccccc1-2 [NGB 2904] | – | – | – | – | – | – | – | – | – | – | – | – | % of smaller T cells expressing PD-1 ([2]; concentration not given): 40.2%; % reduction in % of smaller T cells expressing PD-1 ([2]; concentration not given): 8.4%; % of large T cells expressing PD-1 ([3]; concentration not given): 22.5%; % reduction in % of large T cells expressing PD-1 ([3]; concentration not given): −4.7%
11 | CN[C@H](CC(=O)O)C(=O)O [NMDA, N-methyl-D-aspartic acid] | 30.35% | 17% | – | – | – | – | – | – | – | – | 24.75% | 28.67% | –
12 | Cc1cccc(C(=O)NCN2CCN(c3ccccc3C#N)CC2)c1 [PD168077] | 15.1% | 59% | 5.3% | 74.05% | – | – | 40.3% | 8.2% | 15.6% | 27.4% | 24% | 30.84% | reduction of PD-1 surface expression level and of number of PD-1 expressing T cells ([1]; 1, 18 or 24 hours treatment): greatest reduction in mean percentage of PD-1 expressing T cells after 24 hours of treatment
13 | CCCN1CCO[C@@H]2c3cc(O)ccc3OC[C@H]21 [PD 128907] | 26.15% | 29% | 13.6% | 33.41% | 16.3% and 10.7% | 47.61% | 38.4% | 12.5% | 16.1% | 25.1% | 27.25% | 21.47% | –
14 | CN1CCc2cc(Cl)c(O)cc2[C@H]2c3ccccc3CC[C@@H]21 [SCH 39166] | – | – | – | – | – | – | – | – | – | – | – | – | % of smaller T cells expressing PD-1 ([2]; concentration not given): 40.1%; % reduction in % of smaller T cells expressing PD-1 ([2]; concentration not given): 8.7%; % of large T cells expressing PD-1 ([3]; concentration not given): 19.8%; % reduction in % of large T cells expressing PD-1 ([3]; concentration not given): 7.9%
15 | Oc1cc2c(cc1O)C(c1ccccc1)CNCC2 (stereo not shown) [SKF38393] | 26.2% | 28% | 21.8% | -6.73% | 20.3% | 0.61% | 36.7% | 16.4% | 15.6% | 27.4% | 26.40% | 23.90% | effect on PD-1 expressing T cells [1]: did not have a positive effect
16 | CN[C@@H]1Cc2cccc3[nH]c(=O)n(c23)C1 [Sumanirole] | 25.65% | 30% | 16.4% | 19.71% | 16% | 21.66% | 36.2% | 17.5% | 13.6% | 36.7% | 26.15% | 24.64% | –
17 | CGRP | – | – | – | – | – | – | 35.9% | 18.2% | 16.5% | 23.3% | – | – | % big/activated/proliferating T cells [4]: 19.20%; Fold increase (big/activated/proliferating T cells) [4]: 4.3-fold; number of T cells present in culture (FIG. 1) ([4]; patient one): increased the number of T cells present in culture
18 | Dendrotoxin K | 34.6% | 25% | 16.2% | 20.69% | 16.2% | 20.69% | – | – | – | – | 23.30% | 32.85% | –
19 | GnRH-I: neuropeptide (QHWSYGLRPG; ends and bridges not checked; UniProt P01148 24-33, looked up) | 34.27% | 6% | – | – | – | – | 36.6% | 16.6% | 16.1% | 25.1% | – | – | –
20 | Neuropeptide Y: neuropeptide | – | – | – | – | – | – | – | – | – | – | – | – | % big/activated/proliferating T cells [4]: 16.40%; Fold increase (big/activated/proliferating T cells) [4]: 3.6-fold; number of T cells present in culture (FIG. 1) ([4]; patient one): increased the number of T cells present in culture
21 | B1 | 31.6% | 14% | – | – | – | – | – | – | 9.5% | 55.8% | – | – | surface expression of CD25 (FIG. 2D) ([4]; T cells of patient one): increased the surface expression of CD25; number of T cells present in culture (FIG. 1) ([4]; patient one): increased the number of T cells present in culture; increase in the number of big, proliferating CD3 positive cells (ranking in words) ([4]; patient one, flow cytometer): most effective
